Results published in ChEMBL document CHEMBL1151023, “1,1-Dicyano-2-substituted ethylenes: A new class of glucose uptake inhibitors in antifilarial chemotherapy” (1997).

Columns and labels:
Format in all cases: functional
[1] = system: Mastomys coucha; experiment: Tested for in vivo antifilarial activity against Acanthocheilonema viteae microfilariae infection in Mastomys coucha at 50 mg/kgx 5 days after ip administration, expressed as % reduction in parasite load; conditions: dose 50 mg/kg; route intraperitoneal
[2] = system: Mastomys coucha; experiment: Tested for in vivo antifilarial activity against Acanthocheilonema viteae macrofilariae infection in Mastomys coucha at 50 mg/kgx 5 days after ip administration, expressed as % reduction in parasite load; conditions: dose 50 mg/kg; route intraperitoneal
[3] = system: Acanthocheilonema viteae; experiment: Effect of compound on glucose uptake in Acanthocheilonema viteae at 10 uM concentration (p<0.05)
[4] = system: Acanthocheilonema viteae; experiment: Effect of compound on ATP content in Acanthocheilonema viteae at 10 uM concentration (p<0.005)
[5] = system: Acanthocheilonema viteae; experiment: Effect of compound on lactate produced in Acanthocheilonema viteae at 10 uM concentration (p<0.05)
[6] = system: Mastomys coucha; experiment: Tested for in vivo antifilarial activity against Litomosoides carinii microfilariae infection in Mastomys coucha at 6 mg/kgx 5 days after ip administration, expressed as % reduction in parasite load; conditions: dose 6 mg/kg; route intraperitoneal
[7] = system: Mastomys coucha; experiment: Tested for in vivo antifilarial activity against Litomosoides carinii macrofilariae infection in Mastomys coucha at 6 mg/kgx 5 days after ip administration, expressed as % reduction in parasite load; conditions: dose 6 mg/kg; route intraperitoneal
[8] = system: Mastomys coucha; experiment: Tested for in vivo antifilarial activity against Litomosoides carinii microfilariae infection in Mastomys coucha at 350 mg/kgx 5 days after ip administration, expressed as % reduction in parasite load; conditions: dose 350 mg/kg; route intraperitoneal
[9] = system: Acanthocheilonema viteae; experiment: Effect of compound on lactate produced in Acanthocheilonema viteae at 10 uM concentration(p>0.05)
[10] = system: Acanthocheilonema viteae; experiment: Effect of compound on ATP content in Acanthocheilonema viteae at 10 uM concentration (p>0.05)
[11] = system: Acanthocheilonema viteae; experiment: Effect of compound on glucose uptake in Acanthocheilonema viteae at 10 uM concentration (p>0.05)
[12] = system: Mastomys coucha; experiment: Tested for in vivo antifilarial activity against Litomosoides carinii macrofilariae infection in Mastomys coucha at 350 mg/kgx 5 days after ip administration, expressed as % reduction in parasite load; conditions: dose 350 mg/kg; route intraperitoneal
[13] = system: Acanthocheilonema viteae; experiment: Effect of compound on lactate produced in Acanthocheilonema viteae at 10 uM concentration(p<0.005)
[14] = system: Acanthocheilonema viteae; experiment: Effect of compound on glucose uptake in Acanthocheilonema viteae at 10 uM concentration(p<0.005)
[15] = system: Acanthocheilonema viteae; experiment: Effect of compound on lactate produced in Acanthocheilonema viteae at 10 uM concentration (p>0.05)
[16] = system: Acanthocheilonema viteae; experiment: Effect of compound on glucose uptake in Acanthocheilonema viteae at 10 uM concentration (p<0.005)
[17] = system: Mastomys coucha; experiment: Tested for in vivo antifilarial activity against Litomosoides carinii microfilariae infection in Mastomys coucha at 30 mg/kgx 5 days after ip administration, expressed as % reduction in parasite load with 30% sterilization of female worms; conditions: dose 30 mg/kg; route intraperitoneal
[18] = system: Acanthocheilonema viteae; experiment: Effect of compound on lactate produced in Acanthocheilonema viteae at 10 uM concentration (p<0.005)
[19] = system: Mastomys coucha; experiment: Tested for in vivo antifilarial activity against Litomosoides carinii macrofilariae infection in Mastomys coucha at 30 mg/kgx 5 days after ip administration, expressed as % reduction in parasite load with 30% sterilization of female worms; conditions: dose 30 mg/kg; route intraperitoneal
[20] = system: Mastomys coucha; experiment: Tested for in vivo antifilarial activity against A. viteae microfilariae infection in Mastomys coucha at 50 mg/kgx 5 days after ip administration, expressed as % reduction in parasite load; conditions: dose 50 mg/kg; route intraperitoneal

## N#CC(C#N)=CN1CCN(C=C(C#N)C#N)CC1
[1]
  Reduction: 0%
[2]
  Reduction: 81%
[3]
  Glucose uptake: 327 nM/h (mg of worm)
[4]
  ATP content: 25.7 pM (mg of protein)-1
[5]
  Lactate produced: 258 nM/h (mg of worm)

## CCN(CC)C(=O)N1CCN(C)CC1.O=C(O)CC(O)(CC(=O)O)C(=O)O [DIETHYLCARBAMAZINE CITRATE]
[6]
  Reduction: 98%
[7]
  Reduction: 0%
[8]
  Reduction: 90%
[9]
  Lactate produced: 461 nM/h (mg of worm)
[10]
  ATP content: 55.6 pM (mg of protein)-1
[11]
  Glucose uptake: 256 nM/h (mg of worm)
[12]
  Reduction: 0%

## N#CC(C#N)=CNc1ccc(F)cc1
[1]
  Reduction: 91%
[2]
  Reduction: 0%
[13]
  Lactate produced: 222 nM/h (mg of worm)
[14]
  Glucose uptake: 56 nM/h (mg of worm)
[4]
  ATP content: 16.9 pM (mg of protein)-1

## N#CC(C#N)=CN(CCO)CCO
[1]
  Reduction: 76%
[2]
  Reduction: 0%
[15]
  Lactate produced: 405 nM/h (mg of worm)
[10]
  ATP content: 49.3 pM (mg of protein)-1
[11]
  Glucose uptake: 204 nM/h (mg of worm)

## N#CC(C#N)=CNCCO
[1]
  Reduction: 82%
[2]
  Reduction: 0%
[15]
  Lactate produced: 343 nM/h (mg of worm)
[10]
  ATP content: 47.8 pM (mg of protein)-1
[3]
  Glucose uptake: 164 nM/h (mg of worm)

## N#CC(C#N)=CN1CCN(c2ccccn2)CC1
[16]
  Glucose uptake: 105 nM/h (mg of worm)
[17]
  Reduction: 60%
[18]
  Lactate produced: 157 nM/h (mg of worm)
[19]
  Reduction: 60%
[4]
  ATP content: 37.1 pM (mg of protein)-1

## N#CC(C#N)=CNc1ccccc1
[20]
  Reduction: 47%
[2]
  Reduction: 0%
[15]
  Lactate produced: 443 nM/h (mg of worm)
[10]
  ATP content: 53.5 pM (mg of protein)-1
[11]
  Glucose uptake: 189 nM/h (mg of worm)
